Data taken from PubChem BioAssay (NCI).
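Interpolation was linear, between the two tested concentrations surrounding the appropriate level; five concentrations were tested over 48 hours in 96-well plates. The concentration for full growth arrest is given as TGI.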

Legend:
Assay in all cases: NCI anticancer screen, dose series, 48 h
MDA-MB-231 breast = test system: MDA-MB-231 breast
T-47D breast = test system: T-47D breast
MOLT-4 leukemia = test system: MOLT-4 leukemia
SNB-75 CNS = test system: SNB-75 CNS
DU-145 prostate = test system: DU-145 prostate
IGROV1 ovarian = test system: IGROV1 ovarian
LOX IMVI melanoma = test system: LOX IMVI melanoma
U251 CNS = test system: U251 CNS
SF-268 CNS = test system: SF-268 CNS
SN12C renal = test system: SN12C renal

Structure (SMILES)	TGI (MDA-MB-231 breast) [µM]	TGI (T-47D breast) [µM]	TGI (MOLT-4 leukemia) [µM]	TGI (SNB-75 CNS) [µM]	TGI (DU-145 prostate) [µM]	TGI (IGROV1 ovarian) [µM]	TGI (LOX IMVI melanoma) [µM]	TGI (U251 CNS) [µM]	TGI (SF-268 CNS) [µM]	TGI (SN12C renal) [µM]
CN(C)CCCCN1c2ccccc2Sc2ccc(N=[N+]=[N-])cc21	19.9	13.5	5.85	10	18.2	11.7	5.77	11.9	19.5	22.2
NS(=O)(=O)c1ccc(NNc2c3ccccc3nc3c(C(=O)Nc4ccc(S(N)(=O)=O)cc4)cccc23)cc1	> 100	> 100	49.6	> 100	> 100	> 100	27.5	61	98.4	> 100
NC(Cc1c2ccccc2cc2ccccc12)C(=O)O (stereo not given)	> 100	> 100	94.4	94.9	> 100	> 100	> 100	> 100	> 100	> 100
C[N+](C)(C)CC(=O)N/N=C\c1c(O)ccc2ccccc12	> 100	> 100	51.7	71.1	> 100	> 100	> 100	> 100	69.8	> 100
N#CC(C#N)=CNC(=S)Nc1ccc(S(=O)(=O)Nc2nccs2)cc1	> 100	> 100	> 100	> 100	> 100	> 100	> 100	> 100	> 100	> 100
CC(C)C1CC(CO)(CNc2nc(N)nc(Cl)c2C=O)C1 (stereo not given)	5.14	> 100	5.08	15.4	29.1	3.52	3.81	10.6	> 23.7	28.5
O=c1oc2cc(O)ccc2c(O)c1C(c1ccc(/C=C/c2ccccc2)cc1)c1c(O)c2ccc(O)cc2oc1=O	> 100	> 100	64.1	> 100	> 100	> 100	> 100	> 100	> 100	> 100
COc1cc(CCNC2=CC(=O)c3ncccc3C2=O)ccc1O	6.24	> 63.6	22.8	4.73	12.3	10.1	6.08	19.6	47.4	6.71
CCOP(=O)(OCC)/C(F)=C/c1ccc(F)cc1	> 100	> 100	> 100	> 100	> 100	> 100	> 100	> 100	> 100	> 100
Cc1ccc(Nc2nc3ccccc3nc2NS(=O)(=O)c2ccc(N)cc2)cc1	> 100	> 100	81.8	> 100	> 100	> 100	> 100	> 100	> 100	> 100
C/C(=C\COP(=O)(O)CP(=O)(O)O)CC/C=C(\C)CNc1ccccc1	> 100	> 100	> 100	> 100	> 100	> 100	> 100	> 100	> 100	> 100
COc1ccccc1Nc1nc(N)nc(N)c1N	99.6	> 100	31.6	> 100	> 100	> 100	41.7	> 100	> 100	32.7
COc1ccc(CC(COS(=O)(=O)c2ccc(C)cc2)NS(=O)(=O)c2ccc(C)cc2)cc1 (stereo not given)	> 84.5	21	> 100	28.4	28.9	30.1	> 100	26.2	39	36.1
COc1cc(Nc2nc(NS(=O)(=O)c3cc(C)c(Cl)cc3S)n[nH]2)cc(OC)c1OC	> 100	> 100	> 100	> 100	> 100	> 100	> 100	> 100	> 100	> 100
CCOC(=O)c1cn2c(n1)sc1cc([N+](=O)[O-])ccc12	> 100	> 100	> 100	> 100	> 100	> 100	> 100	> 100	> 100	> 100
CC(C)=CCN1c2ccccc2[C@@]2(CC=C(C)C)CCN(C)[C@@H]12	> 100	50.3	> 100	> 100	> 100	> 100	34	40.5	> 100	> 100
C[C@H]1CC(=O)C[C@@H]2CC[C@@H]3[C@H](CC[C@]4(C)C(OC(=O)c5cccc6c(=O)c7ccccc7[nH]c56)CC[C@@H]34)[C@]21C (stereo not given in full)	> 100	> 100	30.2	92.8	> 100	> 100	> 100	> 100	> 100	> 100

Structure (SMILES)	TGI (MDA-MB-231 breast) [µM]	TGI (T-47D breast) [µM]	TGI (MOLT-4 leukemia) [µM]	TGI (SNB-75 CNS) [µM]	TGI (DU-145 prostate) [µM]	TGI (IGROV1 ovarian) [µM]	TGI (LOX IMVI melanoma) [µM]	TGI (U251 CNS) [µM]	TGI (SF-268 CNS) [µM]	TGI (SN12C renal) [µM]
O=C(NNC(=O)c1cc2ccccc2[nH]1)c1cc2ccccc2[nH]1	> 100	> 100	> 100	> 100	> 100	> 100	> 100	> 100	> 100	> 100
CCO/C=N\C1=C(C#N)SC2=N/C(=C\c3ccco3)C(=O)N21	> 100	> 100	> 100	> 100	> 100	> 100	> 100	> 100	> 100	> 100
C/C(=C/C(=O)N(C)c1ccccc1Cl)O[Si](C(C)C)(C(C)C)C(C)C	50.1	> 100	> 100	> 100	> 100	59.7	33.2	38.7	46.4	32.4
COC1=C(OC)C(=O)c2cc(C)c(=O)c(C)cc2C1=O	20.7	> 55.4	15.6	33	32.6	33.2	> 39	31	37.1	7.08
CN1CN(c2ccccc2)C2(CCN(CCCN(C)c3ccc(F)cc3)CC2)C1=O	28.3	41.7	54.7	40	76.1	34.6	31	33.3	54.6	66.4
CC(=O)OCC1OC(NC(=S)Nn2c(-c3ccccc3)nc3ccccc3c2=O)C(OC(C)=O)C(OC(C)=O)C1OC(C)=O (stereo not given)	> 100	60.2	> 100	> 100	> 100	> 100	> 100	> 100	> 100	> 100
NC(C(=O)O)C(O)c1cnc[nH]1 (stereo not given)	> 100	> 100	> 100	> 100	> 100	> 100	> 100	> 100	> 100	> 100
NCCCc1nonc1C(=O)O	> 100	> 100	> 100	> 100	> 100	> 100	> 100	> 100	> 100	> 100
CC(=O)C1=C(C)N2C(=NC3=C(CCc4ccccc43)C2c2ccc(Cl)cc2)S1 (stereo not given)	> 100	> 100	55.3	> 100	> 100	> 100	> 100	> 100	> 100	> 100
FC(F)(F)c1ccc2c(c1)nc(Cc1ccc(Cl)cc1)n2CC1CCCN2CCCCC12 (stereo not given)	13.1	19.6	10.4	14	21.6	22	7.85	20.5	18	21.4
O=C1C(CN2CCCC2)CCC1CN1CCCC1 (stereo not given)	26.7	37.8	39.9	33.4	> 100	> 82.3	> 51.9	> 100	46.2	> 53
COc1ccc(Cc2nc3cc(C(F)(F)F)ccc3n2C[C@@H]2CCCN3CCCCC23)cc1 (stereo not given in full)	25.2	22.9	31.7	77.4	26.6	15.7	24.9	27.7	19	22.3
CC(C)CCNC(=O)c1ccc(CNC(=O)/C=C/c2ccc3c(c2)-c2ccccc2C3)cc1	> 100	> 100	> 100	53.3	> 100	> 100	> 100	65.2	> 100	> 100
Cn1c2ccccc2n2c3ccccc3c3nnc(N)c-3c12	> 100	12.9	> 100	11.8	> 100	> 100	> 100	11.7	3.68	10
COc1ccc(N(c2ccc(C#N)cc2)c2ccc(C#N)cc2)cc1	> 100	77.6	> 100	> 100	> 100	> 100	> 100	> 100	> 100	> 100
O=C(O)CN1CCN2CCOCCN(CC1)CCN(CC(=O)O)CC2	> 100	> 100	> 100	> 100	> 100	> 100	> 100	> 100	> 100	> 100
